One may read the melting point as the temperature, or range, at which the solid turns liquid. Usually MIC stands for the lowest concentration found to suppress growth.

Marks after values point to notes of the source that are not given here.

The values below come from PMC9604400, “Synthesis, Anticancer and Antitubercular Properties of New Chalcones and Their Nitrogen-Containing Five-Membered Heterocyclic Hybrids Bearing Sulfonamide Moiety” (International Journal of Molecular Sciences, 2022).

For series [1], the system named is M. tuberculosis H37Rv. Put plainly: Checkerboard synergism assay. In kind it is cell-based, Mycobacterium tuberculosis. The settings on record: for MIC: Mycobacterium tuberculosis, H37RV, checkerboard, alone.
Description: The synergism assays were carried out in 96-well plates with Middlebrook 7H9 medium supplemented with OADC.
The test system of series [2] is 60 human cancer cell lines. Put plainly: NCI-60 screen (SRB), whole panel. In kind it is cell-based. The settings on record: single dose 10 μM; for inhibition at 10 µM: Homo sapiens, mean over 60 cell lines, over 100% = cell death, read-out: Mean growth inhibition (GI) percentage.
The mark [3] stands for this setting: antibiotic in combination with 20a.
[4] abbreviates: antibiotic in combination with 20f.

In turn, `COc1ccc(C(=O)/C=C/c2ccc(C)cc2)cc1S(=O)(=O)NNC(=O)c1ccncc1` had a melting point of 250 to 252 °C. Regarding `COc1ccc(C2=NN(C=O)C(c3ccc(Cl)cc3)C2)cc1S(=O)(=O)Nc1cccnc1` (stereo not drawn), the melting point lay in the range of 241 to 243 °C. The compound `COc1cc(OC)c(S(N)(=O)=O)cc1C1=NN(C=O)C(c2ccc(Cl)cc2)C1` (stereo not drawn) showed a melting point of 269 to 271 °C. Take `COc1ccc(C2=NN(C(C)=O)C(c3ccc(Cl)cc3)C2)cc1S(N)(=O)=O` (stereo not drawn): the melting point is 229 to 232 °C. The same measure, in the same setting: to `COc1ccc(C2=NN(C=O)C(c3ccc(Cl)cc3)C2)cc1S(=O)(=O)NNC(=O)c1ccncc1` (stereo not drawn) belongs 156 to 158 °C. On the same count and under the same terms, to `COc1cc(OC)c(S(=O)(=O)NNC(=O)c2ccncc2)cc1C1=NN(C=O)C(c2ccc(Cl)cc2)C1` (stereo not drawn) belongs 166 to 168 °C. The compound `COc1ccc(C2=NN(C(C)=O)C(c3ccc(Cl)cc3)C2)cc1S(=O)(=O)NNC(=O)c1ccncc1` (stereo not drawn) yielded a melting point of 146 to 148 °C. In turn, `COc1ccc(C2=NN(C(N)=S)C(c3ccc(Cl)cc3)C2)cc1S(=O)(=O)Nc1cccnc1` (stereo not drawn) showed a melting point of 236 to 238 °C. In turn, `COc1cc(OC)c(S(=O)(=O)NNC(=O)c2ccncc2)cc1C1=NN(C(N)=S)C(c2ccc(Cl)cc2)C1` (stereo not drawn) had a melting point of 180 to 182 °C. As for `NCC[C@H](O)C(=O)N[C@@H]1C[C@H](N)[C@@H](O[C@H]2O[C@H](CN)[C@@H](O)[C@H](O)[C@H]2O)[C@H](O)[C@H]1O[C@H]1O[C@H](CO)[C@@H](O)[C@H](N)[C@H]1O` [AMK, amikacin, reference compound], the minimum inhibitory concentration (MIC) in series [1] is 1.5 µg/mL. For the same compound, in series [1] (setting [3]), the “FICI Index” value was determined as 2.00 and the “MIC Combination” value turned out to be 1.5 µg/mL. In addition, in series [1] (setting [4]), the “FICI Index” value was found to be 2.00 and the “MIC Combination” value was 1.5 µg/mL. For `COc1cc(OC)c(S(N)(=O)=O)cc1C(C)=O` [Compound 8b, 5-Acetyl-2,4-dimethoxybenzenesulfonamide], the “antiproliferative activity (in words)” value in series [2] is listed as “low antiproliferative activity”.

In the case of `COc1ccc(C(C)=O)cc1S(=O)(=O)Nc1cccnc1` [Compound 10, 5-Acetyl-2-methoxy-N-(pyridin-3-yl)benzenesulfonamide], in series [2], the inhibition at 10 µM came to 3.21% and the “antiproliferative activity (in words)” value is given as “low antiproliferative activity”. For the compound `COc1cc(OC)c(S(=O)(=O)N(CCCl)CCCl)cc1C(C)=O` [Compound 12, 5-Acetyl-N,N-bis(2-chloroethyl)-2,4-dimethoxybenzenesulfonamide], the “antiproliferative activity (in words)” value in series [2] is reported as “low antiproliferative activity”. With `COc1ccc(C(C)=O)cc1S(=O)(=O)NNC(=O)c1ccncc1` [Compound 14a, 5-Acetyl-N’-isonicotinoyl-2-methoxybenzenesulfonohydrazide], in series [2], the inhibition at 10 µM amounted to 2.09% and the “antiproliferative activity (in words)” value is recorded as “low antiproliferative activity”. As for `COc1cc(OC)c(S(=O)(=O)NNC(=O)c2ccncc2)cc1C(C)=O` [Compound 14b, 5-Acetyl-N’-isonicotinoyl-2,4-dimethoxybenzenesulfonohydrazide], the “antiproliferative activity (in words)” value in series [2] is listed as “low antiproliferative activity”. Compound `COc1ccc(C(=O)C=Cc2ccccc2)cc1S(=O)(=O)Nc1cccnc1` [Compound 16a, 5-Cinnamoyl-2-methoxy-N-(pyridin-3-yl)benzenesulfonamide] returned a melting point of 229 to 230 °C. Also, in series [2], the inhibition at 10 µM turned out to be 16.5%. Taken in the same sequence, the figures for `COc1ccc(C(=O)/C=C/c2ccc(Cl)cc2)cc1S(=O)(=O)Nc1cccnc1` [Compound 16b, (E)-5-(3-(4-Chlorophenyl)acryloyl)-2-methoxy-N-(pyridin-3-yl)benzenesulfonamide] were 256 to 258 °C and 17%. For `COc1ccc(C(=O)/C=C/c2ccc(C)cc2)cc1S(=O)(=O)Nc1cccnc1` [Compound 16c, (E)-2-Methoxy-N-(pyridin-3-yl)-5-(3-(p-tolyl)acryloyl)benzenesulfonamide], in that order: 231 to 234 °C and 12.2%. For `COc1ccc(/C=C/C(=O)c2ccc(OC)c(S(=O)(=O)Nc3cccnc3)c2)cc1` [Compound 16d, (E)-2-Methoxy-5-(3-(4-methoxyphenyl)acryloyl)-N-(pyridin-3-yl)benzenesulfonamide], in that order: 228 to 230 °C and 10.2%. Take `COc1ccc(C(=O)/C=C/c2cc(OC)c(OC)c(OC)c2)cc1S(=O)(=O)Nc1cccnc1` [Compound 16e, (E)-2-Methoxy-N-(pyridin-3-yl)-5-(3-(3,4,5-trimethoxyphenyl)acryloyl)benzenesulfonamide]: the melting point lay within 239 to 241 °C. For the same compound, the inhibition at 10 µM in series [2] was found to be 7.7%.

Take `COc1ccc(C(=O)/C=C/c2ccc3c(c2)OCO3)cc1S(=O)(=O)Nc1cccnc1` [Compound 16f, (E)-5-(3-(Benzo[d][1,3]dioxol-5-yl)acryloyl)-2-methoxy-N-(pyridin-3-yl)benzenesulfonamide]: the melting point lay within 220 to 223 °C. Besides, the inhibition at 10 µM in series [2] came to 12.9%. Take `COc1ccc(/C=C/C(=O)c2cc(S(N)(=O)=O)c(OC)cc2OC)cc1` [Compound 17d, (E)-2,4-Dimethoxy-5-(3-(4-methoxyphenyl)acryloyl)benzenesulfonamide]: the melting point lay in the range of 215 to 218 °C. Also, in series [2], the inhibition at 10 µM is 30%. Taken in the same sequence, the figures for `COc1cc(OC)c(S(N)(=O)=O)cc1C(=O)/C=C/c1cc(OC)c(OC)c(OC)c1` [Compound 17e, (E)-2,4-Dimethoxy-5-(3-(3,4,5-trimethoxyphenyl)acryloyl)benzenesulfonamide] were 253 to 256 °C and 24.7%. `COc1cc(OC)c(S(=O)(=O)N(CCCl)CCCl)cc1C(=O)C=Cc1ccccc1` [Compound 18a, N,N-bis(2-chloroethyl)-5-cinnamoyl-2,4-dimethoxybenzenesulfonamide] gave a melting point of 184 to 186 °C. As to `COc1cc(OC)c(S(=O)(=O)N(CCCl)CCCl)cc1C(=O)/C=C/c1ccc(Cl)cc1` [Compound 18b, (E)-N,N-bis(2-Chloroethyl)-5-(3-(4-chlorophenyl)acryloyl)-2,4-dimethoxybenzenesulfonamide], the melting point fell in the range of 186 to 187 °C.

`COc1cc(OC)c(S(=O)(=O)N(CCCl)CCCl)cc1C(=O)/C=C/c1ccc(C)cc1` [Compound 18c, (E)-N,N-bis(2-Chloroethyl)-2,4-dimethoxy-5-(3-(p-tolyl)acryloyl)benzenesulfonamide] returned a melting point of 186 to 189 °C.

Compound `COc1ccc(/C=C/C(=O)c2cc(S(=O)(=O)N(CCCl)CCCl)c(OC)cc2OC)cc1` [Compound 18d, (E)-N,N-bis(2-Chloroethyl)-2,4-dimethoxy-5-(3-(4-methoxyphenyl)acryloyl)benzenesulfonamide] gave a melting point of 168 to 171 °C. The same measure, in the same setting: to `COc1cc(OC)c(S(=O)(=O)N(CCCl)CCCl)cc1C(=O)/C=C/c1ccc2c(c1)OCO2` [Compound 18f, (E)-5-(3-(Benzo[d][1,3]dioxol-5-yl)acryloyl)-N,N-bis(2-chloroethyl)-2,4-dimethoxybenzenesulfonamide] belongs 193 to 196 °C.

With `COc1ccc(C(=O)/C=C/c2ccc(Cl)cc2)cc1S(=O)(=O)NNC(=O)c1ccncc1` [Compound 19b, (E)-5-(3-(4-Chlorophenyl)acryloyl)-N’-isonicotinoyl-2-methoxybenzenesulfonohydrazide], the melting point lay within 242 to 244 °C. Besides, in series [2], the inhibition at 10 µM worked out at 0.96%. As for `COc1ccc(C(=O)/C=C/c2cc(OC)c(OC)c(OC)c2)cc1S(=O)(=O)NNC(=O)c1ccncc1` [Compound 19e, (E)-N’-Isonicotinoyl-2-methoxy-5-(3-(3,4,5-trimethoxyphenyl)acryloyl)benzenesulfonohydrazide], the melting point was in the range of 202 to 204 °C. Moreover, the inhibition at 10 µM in series [2] was determined as 7.7%. For `COc1ccc(C(=O)/C=C/c2ccc3c(c2)OCO3)cc1S(=O)(=O)NNC(=O)c1ccncc1` [Compound 19f, (E)-5-(3-(Benzo[d][1,3]dioxol-5-yl)acryloyl)-N’-isonicotinoyl-2-methoxybenzenesulfonohydrazide], in that order: 245 to 248 °C and 0.48%. For `COc1cc(OC)c(S(=O)(=O)NNC(=O)c2ccncc2)cc1C(=O)/C=C/c1ccc(Cl)cc1` [Compound 20b, (E)-5-(3-(4-Chlorophenyl)acryloyl)-N’-isonicotinoyl-2,4-dimethoxybenzenesulfonohydrazide], the melting point is 196 to 198 °C. In addition, the inhibition at 10 µM in series [2] is 20%. Regarding `COc1cc(OC)c(S(=O)(=O)N(CCCl)CCCl)cc1C1=NN(C=O)C(c2ccc(Cl)cc2)C1` (stereo not drawn) [Compound 22d, N,N-bis(2-Chloroethyl)-5-(5-(4-chlorophenyl)-1-formyl-4,5-dihydro-1H-pyrazol-3-yl)-2,4-dimethoxybenzenesulfonamide], the melting point is 222 to 224 °C. As to `COc1cc(OC)c(S(=O)(=O)N(CCCl)CCCl)cc1C1=NN(C(N)=S)C(c2ccc(Cl)cc2)C1` (stereo not drawn) [Compound 27e, 3-(5-(N,N-bis(2-Chloroethyl)sulfamoyl)-2,4-dimethoxyphenyl)-5-(4-chlorophenyl)-4,5-dihydro-1H-pyrazole-1-carbothioamide], the melting point is 196 to 198 °C. Consider `C[C@H]1COc2c(N3CCN(C)CC3)c(F)cc3c(=O)c(C(=O)O)cn1c23` [Levofloxacin, levofloxacin, reference compound], for which the MIC in series [1] was determined as 0.5 µg/mL. Moreover, the “FICI Index” value came out at 1.25 in series [1] (setting [3]) and 1.00 in series [1] (setting [4]). Moreover, the “MIC Combination” value in series [1] (setting [3]) was 0.5 µg/mL; in series [1] (setting [4]), 0.25 µg/mL. With `CO[C@H]1/C=C/O[C@@]2(C)Oc3c(C)c(O)c4c(O)c(c(/C=N/N5CCN(C)CC5)c(O)c4c3C2=O)NC(=O)/C(C)=C\C=C\[C@H](C)[C@H](O)[C@@H](C)[C@@H](O)[C@@H](C)[C@H](OC(C)=O)[C@@H]1C` [RIF, rifampicin, reference compound], the “MIC Combination” value in series [1] (setting [3]) amounted to 0.048 µg/mL. Moreover, in series [1] (setting [4]), the “FICI Index” value is 0.37 * and the “MIC Combination” value was found to be 0.048 µg/mL.
